Measurements reported in patent publication US9540299B2, “MTOR-independent activator of TFEB for autophagy enhancement and uses thereof” (Hong Kong Baptist University, priority 2015, dated 2017).

What was measured:
[1] = test system: SH-SY5Y cells; test: Real-time PCR of autophagy and lysosome genes in SH-SY5Y cells; type: cell-based, human; details: 1 μM, 12 h
Protocol: (§1) Various gene expressions in Hela cells (FIG. 7A) and SH-SY5Y cells (FIG. 7B) after treated with C1 (1 μM) for 12 h. mRNA transcript abundance is assessed by real-time PCR using specific primers for the indicated genes. Relative quantification (RQ) is presented as means±SD of three independent experiments. FIG. 7C is western blot showing the protein levels of autophagy marker (LC3-II), TFEB and lysosome markers (LAMP1, CTSD) in Hela and SH-SY5Y cells having treated with C1 (0.5, 1 μM) or sucrose (100 mM) for 12 h. The relative intensity of autophagy marker (LC3-II), TFEB and lysosome markers (LAMP1, CTSD) normalized to that of ACTB/β-actin in Hela cells (FIG. 7D) and SH-SY5Y cells (FIG. 7E). Data are presented as the mean±SD from three independent experiments. *p<0.05 vs. the control (0.1% DMSO). […] Autophagy-enhancing effect of C1 is TFEB-dependent. Data are presented as the mean±SD from three independent experiments. *p<0.05 vs. the control. N. S.=not significant.
Total RNA is extracted from cells and tissues using RNeasy Plus Mini Kit (74134, Qiagen). Reverse transcription is performed using High-Capacity cDNA Reverse Transcription Kit (4368814, Life Technologies). […] Fold changes are calculated using the ΔΔCT method and the results were normalized against an internal control (GAPDH or ACTB).

[2] = test system: endogenous SNCA; test: Chronic (21 days) oral administration in SD rats: autophagy markers, SNCA, tolerability; type: in vivo; details: oral 10 mg/kg for 21 days
Protocol: SD rats (n=6 per group) are orally administered by gavage with C1 (10 mg/kg per day) or vehicle (1% CMC-Na) for 21 days. An additional dosage of C1 is given for 6 h before the rats are killed. FIG. 11A is western blots showing the protein levels as indicated in the liver, frontal cortex and striatum. FIG. 11B-11D are quantitative data protein levels in the liver frontal cortex and striatum. Data are presented as the mean±SD (n=6). *p<0.05 vs. the vehicle treatment.
All animal care and procedures are approved by the Hong Kong Baptist University Committee on the Use of Human and Animal Subjects in Teaching and Research. Adult male Sprague-Dawley (SD) rats weighted 350-400 g are maintained on ad libitum food and water with a 12-hour light/dark cycle in a controlled environment. For short-term treatment, rats (n=6 per group) are orally administered by gavage with C1 (10 mg/kg and 25 mg/kg per day) or vehicle (1% sodium carbonyl methylcellulose (CMC-Na)) for 24 h. For chronic treatment, C1 (10 mg/kg per day) is given by gavage to rats for 21 days. At the end of each treatment, an additional dosage of C1 is given for 6 h before the rats are killed. Livers and major brain regions dissected are snap-frozen in liquid nitrogen.
Cells are lysed on ice in 1× Lysis Buffer (9803, Life Technologies) with complete protease inhibitor mixture (04693124001, Roche Applied Science). Animal tissues are homogenized in nine volumes of ice-cold PBS supplemented with protease inhibitors. Cytosolic and nuclear fractions are isolated using protocols similar to those described previously. Anti-Flag or TFEB antibody is added to the whole cell lysates and Dynabeads® Protein G (10003D, Life Technologies) is used for immunoprecipitation. Proteins are separated by 10-15% SDS-PAGE, transferred, and blotted with the antibodies described. The blots are then incubated with secondary antibodies or the Clean-Blot IP Detection Reagent (21230, Thermo Scientific) at room temperature for 1 h. The protein signals are detected by ECL kit (32106, Pierce) and quantified using ImageJ software.
Rats receive oral administration of C1 (10 mg/kg) for 21 days. Another dose of C1 is given for 6 h and the average concentration of C1 in brain tissues is 0.849±0.302 μg/g. Then the autophagy markers in the livers and brains are analyzed. Chronic C1 treatment increases the levels of LC3-II in the livers (FIGS. 11 A and B). […] During the treatment procedure, no changes in body weight or behavior abnormalities are observed.

[3] = Acute toxicity by single-dose intravenous tail vein injection; details: Sprague-Dawley, rat, in vivo, rats, read-out: medium lethal dose (LD50)
[4] = test system: SH-SY5Y cells; test: Western blot of TFEB, LC3-II, LAMP1, CTSD in SH-SY5Y cells; type: cell-based, human; details: SH-SY5Y cells, 0.5, 1 μM, 12 h
Protocol: as §1
N2a, Hela and Hela cells stably expressing 3×-Flag-TFEB are cultured in DMEM supplemented with 10% FBS. SH-SY5Y cells are cultured in DMEM/F12 supplemented with 10% FBS. […]
Cells are lysed on ice in 1× Lysis Buffer (9803, Life Technologies) with complete protease inhibitor mixture (04693124001, Roche Applied Science). […] The protein signals are detected by ECL kit (32106, Pierce) and quantified using ImageJ software.

[5] = test system: N2a cells; test: LC3 puncta and tfLC3 autophagy flux imaging in N2a cells; type: cell-based, mouse
Protocol: N2a cells are treated with E4 (1 μM) in the presence or absence of CQ for 12 hours. The cells are fixed and stained with LC3 antibody (red) and DAPI (blue). Representative cells are then selected and photographed under a DeltaVision Deconvolution Microscope (GE Healthcare).
N2a cells are transiently transfected with mRFP-GFP-LC3 (tfLC3) plasmid and then treated with E4 (1 μM) or CQ (1 μM) for 12 hours. Representative cells are then selected and photographed under a DeltaVision Deconvolution Microscope (GE Healthcare).
After transiently knockdown the expression of TFEB, N2a cells are treated with E4 (1 μM) for 12 hours, the cells were then stained with LC3 antibody (red) and DAPI (blue).
Cells are seeded on coverslips placed in 24-well plates. For autophagy flux assay, cells are transfected with tfLC3 plasmid for 24 hours and then treated with the indicated compounds. For other assays, at the end drug treatment, slices are fixed with 3.7% paraformaldehyde, permeabilized in 0.2% Triton X-100 and blocked with 5% BSA. After blocking, the slices are stained with anti-TFEB (1:200) or anti-LC3 (1:500) antibodies overnight at 4° C. […] Cells are visualized using the Eclipse 80i fluorescence microscope (Nikon Instruments Inc.) or the DeltaVision Deconvolution Microscope (GE Healthcare).

Row | Structure (SMILES) | mRNA of TFEB and genes involved in autophagy and lysosome biogenesis [1] | body weight or behavior abnormalities during treatment [2] | histological evaluation of major organs (liver, lungs, kidneys, and pancreas) [2] | levels of LC3-II in the livers [2] | levels of TFEB and LC3-II in frontal cortex and striatum [2] | levels of endogenous SQSTM1/p62 and SNCA in rats' brains [2] | LD50 [3] [mg/kg] | autophagy/lysosomal biogenesis (LC3-II, LAMP1, CTSD protein levels) [4] | protein levels of TFEB [4] | mRFP-GFP-LC3 (tfLC3) puncta (autophagy flux, autolysosome formation) ([5]; N2a cells transfected with tfLC3, 12 hours) | LC3 punctuates in the presence of CQ ([5]; N2a cells, 1 μM, 12 hours) | LC3 punctuates compared to vehicle control ([5]; N2a cells, 1 μM, 12 hours, endogenous LC3 staining)
1 | COc1ccccc1/C=C/C(=O)/C=C/c1ccccc1OC [C1, 1,5-bis(2-methoxyphenyl)penta-1,4-dien-3-one] | up-regulated | no changes | do not reveal any morphological abnormalities | increases | significantly increases | significantly decrease | 175 | activated | increased | – | – | –
2 | O=C(/C=C/c1ccccc1I)/C=C/c1ccccc1I [E4] | – | – | – | – | – | – | – | – | – | significantly increases the number of red-only puncta | further enhances | significantly increases
